{"source": "patent US9464301B2", "about": "“Increased isoprene production using the archaeal lower mevalonate pathway” (Danisco US Inc., priority 2008, dated 2016)", "molecules": {"B1": {"name": "yeast mevalonate kinase: mevalonate kinase from Saccharomyces cerevisiae, expressed in E. coli and purified to >95% (protein, UniProt P07277 1-443, looked up)", "Mevalonate kinase": "MSLPFLTSAPGKVIIFGEHSAVYNKPAVAASVSALRTYLLISESSAPDTIELDFPDISFNHKWSINDFNAITEDQVNSQKLAKAQQATDGLSQELVSLLDPLLAQLSESFHYHAAFCFLYMFVCLCPHAKNIKFSLKSTLPIGAGLGSSASISVSLALAMAYLGGLIGSNDLEKLSENDKHIVNQWAFIGEKCIHGTPSGIDNAVATYGNALLFEKDSHNGTINTNNFKFLDDFPAIPMILTYTRIPRSTKDLVARVRVLVTEKFPEVMKPILDAMGECALQGLEIMTKLSKCKGTDDEAVETNNELYEQLLELIRINHGLLVSIGVSHPGLELIKNLSDDLRIGSTKLTGAGGGGCSLTLLRRDITQEQIDSFKKKLQDDFSYETFETDLGGTGCCLLSAKNLNKDLKIKSLVFQLFENKTTTKQQIDDLLLPGNTNLPWTS"}}, "key": {"M. mazei MVK": {"tested_on": "M. mazei MVK", "test": "Inhibition of MVK by diphosphomevalonate and IP, two enzyme system", "format": "biochemical, Methanosarcina mazei", "conditions": "1 μM MVK; for Inhibition of M. mazei MVK by isopentenyl monophosphate: 100 μM", "excerpt": "This experiment investigates the inhibitory effect of diphosphomevalonate and […] (IP) on MVK activity using MVK enzymes from S. pneumoniae, yeast, and M. mazei, respectively. […] All chemical reagents were purchased from Sigma unless otherwise specified."}, "S. pneumoniae MVK": {"tested_on": "S. pneumoniae MVK", "test": "Inhibition of MVK by diphosphomevalonate, two enzyme system (MVK plus PMK)", "format": "biochemical, Streptococcus pneumoniae", "conditions": "1 μM MVK, 1 μM PMK, diphosphomevalonate formed in situ", "procedure": "(§1) This experiment investigates the inhibitory effect of diphosphomevalonate and […] (IP) on MVK activity using MVK enzymes from S. pneumoniae, yeast, and M. mazei, respectively. […] All reactions were performed in 96-well plates and were monitored by absorbance at 386 nm on a Molecular Devices Spectramax 190 UV-Vis 96-well spectrophotometer. […] All chemical reagents were purchased from Sigma unless otherwise specified. Yeast and M. mazei MVK were obtained as described above and S. pneumoniae MVK and yeast phosphomevalonate kinase (PMK) were obtained as previously described (Andreassi et al., Biochemistry, 43:16461-66, 2004) from pDW02 in pET200D MVK (FIG. 142)."}, "yeast MVK": {"target": "T1, yeast MVK (Saccharomyces cerevisiae, UniProt P07277)", "T1 construct": "10xHis tag with factor Xa site (pET-16b leader); made in house; host or cells: E. coli BL21(DE3) pLysS", "T1 sequence (P07277 1-443)": "B1 Mevalonate kinase", "test": "Inhibition of MVK by diphosphomevalonate, two enzyme system (MVK plus PMK)", "format": "biochemical", "conditions": "1 μM MVK, 1 μM PMK, diphosphomevalonate formed in situ", "procedure": "as §1"}, "[1]": {"conditions": "about 1 atmosphere and about 60° F.; cited from earlier work"}, "human MVK polypeptide": {"target": "human MVK polypeptide (Homo sapiens, UniProt Q03426)", "sequence (Q03426 whole entry)": "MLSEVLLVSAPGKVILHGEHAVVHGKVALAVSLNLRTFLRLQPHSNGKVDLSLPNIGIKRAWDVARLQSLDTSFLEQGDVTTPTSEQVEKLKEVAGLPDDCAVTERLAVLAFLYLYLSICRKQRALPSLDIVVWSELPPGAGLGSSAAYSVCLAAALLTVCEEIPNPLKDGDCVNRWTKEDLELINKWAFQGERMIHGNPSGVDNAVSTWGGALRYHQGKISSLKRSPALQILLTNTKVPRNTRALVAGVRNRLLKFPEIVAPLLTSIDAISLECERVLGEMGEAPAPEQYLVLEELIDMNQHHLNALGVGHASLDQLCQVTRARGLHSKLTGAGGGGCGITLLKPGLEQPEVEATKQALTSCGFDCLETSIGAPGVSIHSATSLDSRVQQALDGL", "conditions": "reported; cited from earlier work"}, "yeast mevalonate kinase": {"target": "T2, yeast mevalonate kinase (Saccharomyces cerevisiae, UniProt P07277)", "T2 construct": "10xHis tag with factor Xa site (pET-16b leader); made in house; host or cells: E. coli BL21(DE3) pLysS", "T2 sequence (P07277 1-443)": "B1 Mevalonate kinase", "format": "biochemical", "conditions": "for KMapp of yeast mevalonate kinase: other substrate saturating at 5 mM, 30° C."}, "[2]": {"test": "Flammability modeling (CAFT) and testing of isoprene", "format": "physicochemical", "excerpt": "Thus, computer modeling and experimental testing were used to determine the flammability limits of isoprene (such as isoprene in the presence of O2, N2, CO2, or any combination of two or more of the foregoing gases) in order to ensure process safety. The flammability envelope is characterized by the lower flammability limit (LFL), the upper flammability limit (UFL), the limiting oxygen concentration (LOC), and the limiting temperature. For a system to be flammable, a minimum amount of fuel (such as isoprene) must be in the presence of a minimum amount of oxidant, typically oxygen. The LFL is the minimum amount of isoprene that must be present to sustain burning, while the UFL is the maximum amount of isoprene that can be present. Above this limit, the mixture is fuel rich and the fraction of oxygen is too low to have a flammable mixture. The LOC indicates the minimum fraction of oxygen that must also be present to have a flammable mixture. […]\nCalculated adiabatic flame temperatures (CAFT) along with a selected limit flame temperature for combustion propagation were used to determine the flammability envelope for isoprene. […]\nThe igniter was comprised of a 1.5 ohm nicrome coil and an AC voltage source on a timer circuit. Using an oscilloscope, it was determined that 34.4 VAC were delivered to the igniter for 3.2 seconds. […]"}, "[3]": {"target": "T3, MVK from the archaeon Methanococcus jannaschii (Methanocaldococcus jannaschii, UniProt Q58487)", "T3 sequence (Q58487 1-312)": "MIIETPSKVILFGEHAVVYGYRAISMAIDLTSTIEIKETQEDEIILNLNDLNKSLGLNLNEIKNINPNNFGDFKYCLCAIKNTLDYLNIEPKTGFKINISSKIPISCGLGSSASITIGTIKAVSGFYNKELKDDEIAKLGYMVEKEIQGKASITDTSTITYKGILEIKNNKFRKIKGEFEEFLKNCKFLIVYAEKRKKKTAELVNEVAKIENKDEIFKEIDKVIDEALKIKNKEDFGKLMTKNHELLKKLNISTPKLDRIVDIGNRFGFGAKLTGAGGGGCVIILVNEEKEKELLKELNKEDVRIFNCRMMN", "conditions": "Huang et al. 1999; cited from earlier work"}}, "note": "“Also recorded” adds a separate entry of the source.", "data": [{"molecule": "C[C@@](O)(CCOP(=O)(O)OP(=O)(O)O)CC(=O)O", "note": "[diphosphomevalonate]", "values": [{"measurement": "Inhibition of M. mazei MVK by diphosphomevalonate", "setting": "M. mazei MVK; PMK, diphosphomevalonate formed in situ", "value": "proceed to completion; also recorded: Neither yeast MVK nor M. mazei MVK was inhibited"}, {"measurement": "Inhibition of S. pneumoniae MVK by diphosphomevalonate", "setting": "S. pneumoniae MVK", "value": "inhibited"}, {"measurement": "Inhibition of yeast MVK by diphosphomevalonate", "setting": "yeast MVK", "value": "not inhibited; also recorded: Neither yeast MVK nor M. mazei MVK was inhibited"}]}, {"molecule": "CCO", "note": "[ethanol]", "values": [{"measurement": "LFL", "setting": "[1]", "value": "about 3.3 vol %"}, {"measurement": "LOC", "setting": "[1]", "value": "about 8.7 vol %"}]}, {"molecule": "C=C(C)CCOP(=O)(O)OP(=O)(O)O", "note": "[IPP, isopentenyl diphosphate]", "values": [{"measurement": "Inhibition of M. mazei MVK by isopentenyl monophosphate", "setting": "M. mazei MVK", "value": "not inhibited"}]}, {"molecule": "C=C(C)CCOP(=O)(O)O", "note": "[IP, isopentenyl monophosphate]", "values": [{"measurement": "Inhibition of M. mazei MVK by isopentenyl monophosphate", "setting": "M. mazei MVK", "value": "not inhibited"}]}, {"molecule": "CC(C)=CCC/C(C)=C/CC/C(C)=C/CO[P@@](=O)(O)OP(=O)(O)O", "note": "(stereo in doubt) [FPP, farnesyl diphosphate]", "values": [{"measurement": "Ki for human MVK polypeptide", "setting": "human MVK polypeptide", "value": "nanomolar range"}]}, {"molecule": "Nc1ncnc2c1ncn2[C@@H]1O[C@H](COP(=O)(O)OP(=O)(O)OP(=O)(O)O)[C@@H](O)[C@H]1O", "note": "[ATP, adenosine triphosphate]", "values": [{"measurement": "KMapp of yeast mevalonate kinase", "setting": "yeast mevalonate kinase", "value": "714 ± 49", "unit": "µM"}]}, {"molecule": "CC(C)=CCC/C(C)=C/CC/C(C)=C/CC/C(C)=C/COP(=O)(O)OP(=O)(O)O", "note": "[GGPP, geranylgeranyl diphosphate]", "values": [{"measurement": "Ki for human MVK polypeptide", "setting": "human MVK polypeptide", "value": "nanomolar range"}]}, {"molecule": "C=CC(=C)C", "note": "[isoprene, 2-methyl-1,3-butadiene]", "values": [{"measurement": "limiting oxygen concentration (LOC)", "setting": "[2]; isoprene, O2, N2, and CO2 mixture at 40° C. and 1 atmosphere", "value": 9.5, "unit": "vol %"}, {"measurement": "limiting temperature", "setting": "[2]; lowest temperature at which combustion can propagate", "value": "about −54 °C"}]}, {"molecule": "CC(C)=CCC/C(C)=C/COP(=O)(O)OP(=O)(O)O", "note": "[GPP, geranyl diphosphate]", "values": [{"measurement": "Ki for human MVK polypeptide", "setting": "human MVK polypeptide", "value": "nanomolar range"}, {"measurement": "Feedback inhibition of M. jannaschii MVK", "setting": "[3]", "value": "feedback inhibited"}]}, {"molecule": "CC(O)(CCO)CC(=O)O", "note": "(stereo not shown) [mevalonate]", "values": [{"measurement": "KMapp of yeast mevalonate kinase", "setting": "yeast mevalonate kinase", "value": "131 ± 8", "unit": "µM"}]}, {"molecule": "B1", "values": [{"measurement": "turnover number (kcat)", "setting": "yeast mevalonate kinase; yeast mevalonate kinase", "value": "38 ± 5", "unit": "s⁻¹"}]}]}
